Source: patent US12311044B2, “Antimicrobial composition” (priority 2018, dated 2025)

Test system: total salivary bacterial pool (mixed oral bacteria)
Experiment: Malodour assay using lead acetate paper (H2S production by pooled salivary bacteria)
Format: cell-based
Design: concentration or dose not given beside the values
Conditions: pooled human saliva bacteria OD 0.4, 96 well plate, incubated overnight, ΔE of lead acetate paper; actives at the weight % of the composition
Protocol: Malodour Assay Using Lead Acetate Paper:
The following tests were done to find out the efficacy of different compositions inside and outside the scope of the present invention:
The early morning saliva from different volunteer (5 samples) were pooled and centrifuged (Eppendorf refrigerated centrifuge 5810R at 6300 rcf/11.5 G) for 10 minutes. After that, the Supernatant which is saliva and the pellet—mixed bacterial pool (oral bacteria e.g. Streptococcus. mitis, Streptococcus. mutans, Nisseria. flava, Rothia. dentocariosa etc.,) was separated. The saliva was then filter sterilized by passing through the 50 mL conical 0.2 μm PES sterile filter (VWR lab products limited). The OD of total salivary bacterial pool culture was adjusted to 0.4 by spectrophotometer (Shimadzu UV Spectrophotometer—UV-1800) for higher pool of bacteria which is required for the assay. The assay was set up in a 96 well plate with respective culture control and DMSO control. The total reaction volume was 200 μL/well which comprises of the following: 45 μl 0.1% L-cysteine-HCl (Sigma, C1276)+TSB (Bacto, 211825, 30 g/L)+50 μL sterile Saliva+75 μL Culture+30 μL active (as per the weight % disclosed in the following table 2)+sterile distilled water.
Then the actives at desired concentration were added and the remaining volume was adjusted with sterile distilled water. After that, the wells were mixed well, and lead acetate filter was placed above the wells to capture the H2S released by the bacteria. […] The intensity of the spots was measured using a LAB reader (Minolta spectrophotometer CM 2600D). The colour reading was expressed in LAB, L* defines lightness, A* denotes the red/green value and B* the yellow/blue value. Then ΔL, ΔA and ΔB is calculated using this formula ΔL=L control−L sample, ΔA=L control−L sample, AB=L control−L sample. The total colour difference which is expressed as ΔE is calculated using this formula ΔE=√{square root over (((ΔL)^2+(ΔA)^2+(ΔB)^2))}. […] The total fold change of H2S inhibition over the control was calculated for the individual actives.

Row | Compound | Fold Change (total fold change of H2S inhibition over the control)
1 | C=CCc1ccc(O)c(-c2ccc(O)c(CC=C)c2)c1 [B, honokiol] | 1.6 ± 1.8
2 | C=CCc1ccc(O)c(-c2ccc(O)c(CC=C)c2)c1 [C, honokiol] | 1.5 ± 1.8
3 | CC(O)CN(CCN(CC(C)O)CC(C)O)CC(C)O (stereo not drawn) [Example A, tetrahydroxypropyl ethylenediamine] | 0.9±0.3
